Earlier results in paper PMC8886800 (Journal of the American Chemical Society, 2021).

Substance: Ac-KLTWMELY QLAYKGI [MA]
- effect on angiogenesis (reported) (angiogenesis): capable of inhibiting angiogenesis
- binding to VEGF receptors (reported) (VEGFR): demonstrated binding to VEGF receptors
